Laboratory results taken from US9586993B2, “CD44v6-derived peptides for treating pancreatic cancer” (AMCURE GMBH, priority 2012, dated 2017).
Where two headings read alike, the source gives them in different places. No end group written: not given here.

Experiments:
[1] = test system: HGF induced activation of the receptor tyrosine kinase Met and ERK; assay: HGF-induced activation of Met and ERK in BSp73ASs6 cells (western blot); format: cell-based, rat; settings: HGF 10 ng/ml, peptide added 10 min before induction
Method: (§1) Serum-starved cells (24 hours) were induced with the growth factor HGF (10 ng/mL) at 37° C. for 5 minutes. Where indicated, the cells were treated with peptides (100 ng/ml) prior to induction at 37° C. for 10 minutes (100 ng/mL CD44v6 peptide or control peptide). Following the induction with HGF, cells were washed with ice-cold phosphate-buffered saline (PBS). To detect activated Met and Erk, cells were lysed in sodium dodecyl sulfate (SDS)-sample buffer containing 100 mM dithiothreitol (DTT), boiled and subjected to western blot analysis using antibodies against phospho-Met and ERK. The loading controls were performed on the same blot after stripping (62.5 mM Tris, pH 6.8, 2% SDS, 0.8% DTT) by probing with the Met respectively ERK antibody. Blots were stained using the enhanced chemiluminescence system (Thermo Fisher Scientific, Schwerte, Germany). Bands in western blot analysis were quantified with the program Image J (National Institutes of Health).
The PEG-control peptide and PEG-rat CD44v6 peptide were compared for their ability to block HGF induced activation of the receptor tyrosine kinase Met and ERK. […]
Activation of ERK and Met was determined by standard SDS and Western Blotting techniques using a phospho-Met and phospho-Erk specific antibody (phospho-Met clone D16 cell signaling, phospho-Erk p42/44 cell signaling)

[2] = test system: BSp73ASs6 cells; assay: Staining of fixed BSp73ASs6 cells with DY681-labeled peptides; format: binding, rat; settings: DY681-labeled peptide, one hour
Method: (§2) ASs6 or L3.6p1 cells were seeded at 5,000 cells/well of a Lab-Tek® Chamber Slide™ (Nunc, Napierville, Ill., USA). On the following day the cells were washed with cold PBS and fixed with 4% Formalin for 30 min at RT. Unspecific binding was blocked with 1% BSA in PBS for 1 hour at RT. The cells were incubated for 1 hour with the DY681-labeled peptides. After three washing steps with PBS the cover slips were mounted with Fluorescence Mounting Medium (Dako, Glostrup, Denmark) and the immunofluorescence was measured by a laser scanning confocal microscope Leica TCS2 SP2 (Exton, Pa., USA) and processed using Leica confocal software. A 20× objective was used for imaging.

[3] = test system: BSp73ASs6 tumors; settings: rat, iv
Method: In vivo imaging of the subcutaneously grown BSp73ASs6 tumors in BD10 or BDX rats was performed using the near infrared fluorescence (NIRF)-imaging system Optix MX2 (ART, Montreal, Canada) as described earlier (Napp et al., Int J Cancer (2010), 127:1958-1974). To avoid autofluorescence of fur, rats were shaved around the tumor prior to imaging. Subsequently, animals were anesthetized using 2% isoflurane and gently fixed on the devices' heated plate for the entire time of data acquisition. To reduce fluorescence background, rats were fed with chlorophyll-reduced food (Provimi Kliba AG, Kaiseraugst, Switzerland) for one week prior NIRF imaging. All in vivo analyses were preceded by native scans of animals without any injection of the fluorescent probe. For in vivo analysis, rats were injected with 200 DY681-labeled rat v6 11mer peptide or the human v6 11mer peptide via the tail vein. […]
DY681 fluorescence was measured using excitation at 670 nm in combination with a 700 nm long-pass emission filter. […] Data sets were analyzed with OptiView (ART).
For in vivo experiments, BSp73ASs6 cells were injected subcutaneously into syngeneic rats. […] The accumulation of the fluorescence was measured in the tumor region by Optix MX2 at the indicated time points. […] Then, in vivo binding kinetics of the Dy681-labeled v6 peptides to the subcutaneous tumors were determined.

[4] = test system: Met activation and downstream signaling to ERK; assay: HGF-induced activation of Met and ERK in L3.6p1 cells (western blot); format: cell-based, human; settings: HGF 10 ng/ml
Method: as §1
To expand the studies to human pancreatic tumors, the highly metastatic human pancreatic carcinoma cells L3.6p1 (Bruns, et al. Neoplasia (1999), 1(1):50-62) were investigated. These cells originate from the […] cells that have been passaged several times in the liver and the pancreas, a step that rendered them more and more metastatic. It was confirmed that Met is dependent on CD44v6 for its activation and signaling in these cells (FIG. 4A). The L3.6p1 cells were treated with HGF in the presence or absence of a human v6 peptide of SEQ ID NO: 2 or SEQ ID NO:6 and Met activation and downstream signaling to ERK was measured.

[5] = test system: L3.6p1 cells; assay: Staining of L3.6p1 cells with DY681-labeled peptides; format: binding, human; settings: DY681-labeled peptide
Method: as §2

[6] = test system: L3.6p1 tumors; assay: In vivo and ex vivo imaging with Pearl Imager of mice bearing L3.6p1 tumors; parameters: species or system mouse
Method: In vivo imaging of the mice with the L3.6p1 tumors was performed using the Pearl™ Imager (LI-COR Biosciences, Bad Homburg, Germany) The system uses two lasers (685 and 785 nm) for excitation and a charge-coupled device detector for signal detection. The laser excitation enables a deep tissue penetration. With the near-infrared detection a high sensitivity due to the reduced tissue auto-fluorescence is achieved. In order to standardize the images we made use of the Pearl Cam Software. The animals were fed with chlorophyll-reduced food to reduce the fluorescence background one week before imaging (Regime 210, safe-diets, Augy, France). Prior to imaging the mice were anesthetized with 2.0% isoflurane. Animals were placed on the heated plate of the imager and continuous delivery of isoflurane was achieved through a nose cone in the imaging drawer. Images were captured at white light, 700 and 800 nm Animals were imaged prior to i.v. peptide injection and 24 h after injection with either DY681-labeled human v6 peptide or DY681-labeled rat v6 peptide as control Immediately after each imaging session animals were killed, tumor, liver and spleen isolated and scanned ex vivo at white light, 700 and 800 nm.

[7] = test system: L3.6p1 pancreatic carcinoma cells; assay: Human orthotopic model, L3.6p1 cells in the pancreas of nude mice; format: in vivo, mouse
Method: In the case of the human orthotopic model, L3.6p1 pancreatic carcinoma cells (passage 24-26) were suspended in Hank's balanced salt solution (Invitrogen, Karlsruhe, Germany) after trypsinization. The cells were injected orthotopically in the pancreas of male nude mice as described (Bruns C J et al. (1999) Neoplasia 1(1):50-62). Two groups of 15 mice each were injected i.p. 7 days later with either the human v6 peptide respectively rat control peptide (20 μg). For all experiments described and depicted herein either the rat 14mer control peptide or the human 14mer peptide were used. All experiments were then repeated with the rat 5mer control peptide or the human 5mer peptide (N-R-W-H-E, SEQ ID NO: 2). […] The injection was repeated three times per week for 21 days. Two days after the last treatment the animals were killed.
7 μm thick paraffin sections were deparaffinized and rehydrated. For P-Met staining antigen unmasking was achieved by boiling the slides in 1 mM EDTA pH 8.0 followed by incubation for 15 minutes at a sub-boiling temperature, for CD31 staining the sections were treated with Proteinase K (8 μg/ml) for 10 min at 37° C. For immunofluorescence staining of P-Met, unspecific binding was blocked with 5% goat serum (DAKO, Glostrup, Denmark) (diluted in 1×PBS/0.3% Triton X-100) for 60 minutes. In the case of immunohistochemistry, endogenous peroxidases were at first blocked with 3% H2O2 in PBS followed by incubation with biotin blocking system (Dako, Glostrup, Denmark) and then unspecific binding was inhibited by incubation with 5% FCS in PBS. The sections were incubated with the P-Met antibody (D26, dilution 1:50 in 1×PBS/1% BSA/0.3% Triton X-100), Met antibody (C-28, dilution 1:50), GFP antibody (sc-101525, dilution 1:50) or antibody (5 μg/ml) over night or VFF18 (5 μg/ml) o/n at 4° C. After washing in PBS the sections were incubated with Alexa Fluor R 546 goat anti-rabbit (in case of immunofluorescence P-Met and Met staining, dilution 1:500) or a biotinylated secondary antibody (for immunohistochemical stainings rabbit anti-rat antibody for VFF18 and CD31, goat anti-rabbit for P-Met, cleaved Caspase-3 and cleaved Caspase-8 and rabbit anti-mouse for GFP, dilution 1:500) for 45 minutes. For DAB (3,3′-diaminobenzidine) staining the sections were treated with a streptavidin-peroxidase conjugate (Dako, Glostrup, Denmark) and developed with DAB substrate system (3,3′-diaminobenzidine; Biozol, Eching, Germany) For immunofluorescence DAPI was used for nuclear staining.
The three CD44v6 specific compounds (v6 5mer, PEG840-v6 5mer and PEG2000-v6 5mer of human origin) and a control peptide were applied in three concentrations (2 μg, 20 μg, 200 μg per injection) three times per week i.p. for 4 weeks. One week before start of the treatment the L3.6p1 tumor cells were orthotopically implanted into nude mice.
Animals were implanted orthotopically with L3.6p1 cells. Tumor growth was allowed for one week before the treatment with the linear v6 14mer, the cyclic v6 8mer as well as the control peptide (rat v6 14mer) was started. All peptides were injected three times per week at a concentration of 0.2, 2 and 10 μg per injection for 3 weeks. At the end of the treatment animals were sacrificed.
A comparison of different CD44v6 peptide derivatives was performed in animals bearing a orthotopic L3.6p1 tumor. 10 groups of 5 animals each received a dose of 20 μg peptide per injection three times per week for 3 weeks with the compounds listed in Table 4. Three weeks after starting the treatment the animals were sacrificed and analyzed for macroscopic metastases and tumor volume.

[8] = test system: L3.6p1 pancreatic carcinoma cells; assay: as above; format: in vivo, mouse; settings: dose reduction experiment, 0.2 to 20 μg per injection three times per week for 3 weeks
[9] = test system: Met; settings: Matzke et al., Cancer Res. (2005), cited from earlier work

Q: Which “inhibition of HGF-induced activation of Met and Erk” value [1] does the source give for “WFENEWQGKNP (also: DY681 dye, position not given here) [DY681 rat v6 peptide]” here?
A: inhibited Met activation

Q: What about the “binding to BSp73ASs6 cells in tissue culture” value [2] of the same substance?
A: bound to BSp73ASs6 cells in tissue culture

Q: What about the “time of maximum fluorescence intensity over the tumor area” value ([3]; in vivo) of the same substance?
A: 1 days

Q: What about the “duration of high fluorescence intensity over the tumor area in vivo” value [3] of the same substance?
A: at least 2 days

Q: Which “inhibition of HGF-induced activation (phosphorylation) of Met and ERK” value [4] does the source give for “WFGNRWHEGYR (also: DY681 dye, position not given here) [DY681 human v6 peptide, human 11mer labeled with the fluorescent dye DY681]” here?
A: inhibited Met activation in L3.6p1 cells

Q: What about the “binding to L3.6p1 cells in cell culture” value [5] of the same substance?
A: bound to these cells in cell culture

Q: What about the “fluorescence in the tumor in vivo” value ([6]; one i.v. injection of 20 μg, 24 h after injection) of the same substance?
A: accumulated specifically in the tumor

Q: And the “ex vivo fluorescence in primary tumors, livers and spleens” value ([6]; organs excised 24 h after injection)?
A: binding not only to primary tumors but also to areas of the liver

Q: For “WFQNGWQGKNP (also: DY681 dye, position not given here) [DY681 mouse v6 peptide, mouse 11mer labeled with the fluorescent dye DY681, control, reference compound]”, which “inhibition of HGF-induced activation of Met and Erk” value [1] is on record?
A: but not the mouse peptide inhibited Met activation

Q: With “cy[KGNRWHEG] (also: cyclic, ring type not given here) [cycl. 8 mer]” as the substance, how does the “metastasis formation (liver)” value ([7]; 2 μg per injection i.p. three times per week) read?
A: blocked metastatic spreading at 2 and 20 μg per injection very efficiently

Q: And the “outgrowth / size of the primary tumor” value ([7]; 20 μg per injection i.p. three times per week for three weeks, start one week after implantation)?
A: strongest reduction of tumor size

Q: What about the “metastasis formation (liver)” value ([7]; 20 μg per injection i.p. three times per week, start one week after implantation, listed as cyclic 8mer) of the same substance?
A: complete inhibition of metastasis

Q: What about the “metastasis formation (liver)” value ([7]; 20 μg per injection i.p. three times per week, start one week after implantation, listed as cyclic v6 8mer) of the same substance?
A: blocked metastatic spreading at 2 and 20 μg per injection very efficiently

Q: What about the “size / growth of the primary tumor” value ([8]; listed as cyclic 8mer) of the same substance?
A: reduces growth of the primary tumor

Q: What about the “size / growth of the primary tumor” value ([8]; listed as cyclic v6 8mer) of the same substance?
A: drastic effect on growth of the primary tumor

Q: What does the source list for “A-R-W-H-A (ARWHA) [A-R-W-H-A (SEQ ID NO: 3)]”?
A: inhibition of CD44v6 mediated activation of Met [9]: capable of abrogating Met activation; inhibition of CD44v6 mediated activation of Met ([9]; listed as SEQ ID NO: 3): still active in inhibiting CD44v6 mediated activation of Met
